Where no end group is shown, it is not given here.
Legend:
[1] = tested on: S. epidermidis GISE strain; assay: Rat subcutaneous Dacron graft infection model, GISE strain; format: in vivo; details: for Bacterial concentration, GISE: 2×10^7 bacteria, explanted day 7; for Bacterial concentration, GISE / Bacterial load on graft, GISE: mean ± SD; for Bacterial load on graft, GISE: Table 3A S. epidermidis
Protocol: (§1) Rats (Wistar adult males (300-350 g), n=15/experimental group) were anaesthetized, hair on their back shaved and the skin cleansed with 10% povidone-iodine solution. A subcutaneous pocket was made on the side of the median line by a 1.5 cm incision. Aseptically, 1 cm^2 sterile collagen-sealed Dacron graft (Albograft™, Sorin Biomedica Cardio, S.p.A., Saluggi VC, Italy) was implanted into the pocket. […] Pockets were closed by skin clips and 1 ml sterile saline solution with or without 2×10^7 bacteria was inoculated onto the graft surface using a tuberculin syringe to create a subcutaneous fluid-filled pocket. Some of the animals that had grafts soaked only with RIP or saline were injected intraperitoneally with antibiotics (cefazolin 30 mg/kg, imipenem 30 mg/kg, teicoplanin 10 mg/kg, levofloxacin 10 mg/kg). Grafts were explanted 7 days following implantation.
(§2) The explanted grafts were placed in sterile tubes, washed in sterile saline solution, placed in tubes containing 10 ml of phosphate-buffered saline solution and sonicated for 5 min to remove the adherent bacteria from the grafts. Quantitation of viable bacteria was performed by culturing serial 10-fold dilutions (0.1 ml) of the bacterial suspension on blood agar plates. All plates were incubated at 37° C. for 48 hr and evaluated for the presence of the strain. Bacteria were quantitated by counting the number of colony forming unites (CFU) per plate. To determine if bacteria were efficiently removed from the graft, washed and sonicated grafts were observed under a Nikon Eclipse E 600 optical microscope (Nikon Y-THS, Japan).
Quantitative culture results of the in vivo experiments were presented as mean+SD of the mean. Comparisons of the results were performed by the analysis of variance (ANOVA) on the log-transformed data. Statistical analysis was performed for in vitro adhesion assays using Student's t-Test by Microsoft Excel (Microsoft, Wash.). Significance was accepted when the P value was <0.05.
To test if RIP can prevent graft-associated infections, Dacron grafts were coated with or without RIP, and with or without various types of antibiotics (for local prophylaxis experiments). Coated grafts were implanted in rats, bacteria injected into the implants, implants removed after a week, and bacterial load determined. Alternatively, Dacron grafts were first coated with RIP, bacteria injected, and antibiotics were administered by the intraperitoneal route (for parenteral prophylaxis experiments). As a negative control, grafts were implanted without local or parenteral RIP/antibiotics prophylaxis and no bacteria were injected. As a positive control, grafts were implanted, bacteria were injected, but no RIP/antibiotics prophylaxis was given.
Animals (15/group) received a Dacron-graft implanted in a subcutaneous pocket. Graft was subsequently infected with either S. epidermidis (tested on MSSE, MRSE and GISE) or with S. aureus (tested on MSSA, MRSA and GISA). […]

S. aureus GISA = assay: Rat subcutaneous Dacron graft infection model, GISA strain; format: in vivo; details: Table 3B S. aureus, mean ± SD
Protocol: as §1, with “implantation. Estimated RIP that adhered to graft was 10-26 μg.” for “implantation.”
as §2
(§3) Animals (15/group) received a Dacron-graft implanted in a subcutaneous pocket. Graft was subsequently infected with either S. epidermidis (tested on MSSE, MRSE and GISE) or with S. aureus (tested on MSSA, MRSA and GISA). The Dacron-graft prior to implantation was soaked in saline with or without 20 mg/l of RIP and some animals received […] of RIP i.p. as a prophylaxis treatment.

S. aureus MRSA = assay: Rat subcutaneous Dacron graft infection model, MRSA strain; format: in vivo; details: Table 3B S. aureus, mean ± SD
Protocol: as §1, with “implantation. Estimated RIP that adhered to graft was 10-26 μg.” for “implantation.”
as §2, §3

[2] = tested on: S. epidermidis adherence to HaCat cells; assay: Adherence of FITC-labeled S. epidermidis to HaCat cells; format: cell-based; details: 5 μg RIP, 10^6 CFU, 30 min at 37° C.
Protocol: FIG. 14A is a graph depicting adherence in the presence of RIP (RIP+) and in the absence of RIP (RIP−). FITC-labeled bacterial cells (10^6 CFU) were applied to microtiter plates containing confluent 10^4 HaCat cells, in the presence or absence of 5 μg RIP (RIP+/−). Cells were incubated for 30 min at 37° C., washed in PBS and fluorescence at 485/530 nm was determined.
Virulence of S. epidermidis is also often associated with their ability to adhere to host cells and to form biofilm on medical devices. To test whether RIP can prevent S. epidermidis from colonizing host cells and therefore be a candidate for therapy and prevention, FITC-labeled S. epidermidis were incubated in the presence or absence of RIP with a confluent layer of keratinocytes (HaCat cells) for 30 min.

[3] = tested on: S. epidermidis adherence to polystyrene; assay: Adherence and biofilm formation of S. epidermidis on polystyrene (safranin); format: cell-based; details: polystyrene microtiter plates, 3 hrs
Protocol: FIG. 14B is a graph depicting adherence in the presence of RIP RIP+ and in the absence of RIP RIP−. S. epidermidis were grown in polystyrene plates for 3 hrs, adherent bacteria were stained by safranin, and absorbance at 490 nm was determined.
To test whether RIP reduces adherence and biofilm formation of S. epidermidis to plastic, early exponential S. epidermidis were grown for 3 hrs in microtiter plates made of polystyrene, and adherent cells were stained with safranin. These experimental conditions allow for biofilm to be formed (as observed by atomic force microscopy, not shown).

RNAIII = details: cited from earlier work
S. aureus Smith Diffuse = details: mice; cited from earlier work
S. aureus LS-1 = details: mice; cited from earlier work
S. aureus MS = details: rabbits; cited from earlier work
[4] = tested on: bacterial adhesion to HEp2 cells; details: cited from earlier work
[5] = RIP local (graft soaked in 20 mg/l RIP)
[6] = RIP parenteral (10 mg/l RIP i.p.)

Q: Which results are given for YSPWTNF(—NH2) (YSPWTNF-NH2) [RIP]?
A: Bacterial concentration, GISE ([1]; A. Local prophylaxis: graft soaked 20 min in RIP 10 mg/l and/or antibiotic (mupirocin 100, quinupristin-dalfopristin 50, levofloxacin 30, rifampin 5 mg/l), rats): 6.2 ± 2.4 ×10^4 CFU/ml; Bacterial concentration, GISE ([1]; B. Parenteral prophylaxis: antibiotic intraperitoneally (cefazolin 30, imipenem 30, teicoplanin 10, levofloxacin 10 mg/kg), RIP as 10 mg/l graft soak, rats): 6.2 ± 2 ×10^4 CFU/ml; Bacterial load on graft, GISE [1, 5]: 0.46 ± 0.13 ×10^4 CFU/ml; Bacterial load on graft, GISE ([1]; RIP local + RIP parenteral): 0.00 ± 0 ×10^4 CFU/ml; Bacterial load on graft, GISE [1, 6]: 0.31 ± 0.6 ×10^4 CFU/ml; Quantitative culture results of explanted graft, GISE strain ([1]; peptide-soaked/coated Dacron graft (RIP 10 mg/l), no antibiotic, rats, day 7): 6.2×10^4±2.0×10^4 CFU/ml; RIP graft treatment inhibiting bacteria better than parenteral antibiotics prophylaxis ([1]; rats inoculated with GISE): 10 to 100 fold; Bacterial load on graft, GISE (S. aureus GISA; [5]): 0.70 ± 0.28 ×10^4 CFU/ml; Bacterial load on graft, GISE (S. aureus GISA; RIP local + RIP parenteral): 0.00 ± 0 ×10^4 CFU/ml; Bacterial load on graft, GISE (S. aureus GISA; [6]): 0.49 ± 0.11 ×10^4 CFU/ml; Bacterial load on graft, MRSE (S. aureus MRSA; [5]): 0.62 ± 0.21 ×10^4 CFU/ml; Bacterial load on graft, MRSE (S. aureus MRSA; RIP local + RIP parenteral): 0.00 ± 0 ×10^4 CFU/ml; Bacterial load on graft, MRSE (S. aureus MRSA; [6]): 0.29 ± 0.088 ×10^4 CFU/ml; S. epidermidis adherence to HaCat cells [2]: significantly (p<0.05) reduced; Number of cells that adhered to the plastic [3]: significantly reduced; Inhibiting RNAIII in vitro (RNAIII): extremely effective; Suppressing S. aureus infection: cellulitis (S. aureus Smith Diffuse): extremely effective; Suppressing S. aureus infection: septic arthritis (S. aureus LS-1): extremely effective; Suppressing S. aureus infection: osteomyelitis (S. aureus MS): extremely effective; Bacterial adhesion to eukaryotic cells [4]: decreased
